From patent publication US6548042B2, “Bis-phosphonate compounds” (priority 2000, dated 2003)

Legend:
[1] = Biodistribution of HPLC-purified and nonpurified (crude) compound in nude rats; assay type: in vivo, congenitally athymic nude rats (Han rnu/rnu Rowett)
Protocol: Nude/nude rats with a body weight averaging 60 g were used in the biodistribution experiments. The aim of the study was to compare crude 3h with HPLC-purified 3h. The term “crude compound” refers to the diluted and neutralised labelling reaction mixture described hereinbefore. The compounds were administrated by tail vein injections of 200 μl for each animal, using three animals for each sample. 24 h after injection the animals were killed by a lethal injection and the tissue distribution determined.
Rats. […] At 24 h postinjection the animals were sacrificed, weighed and dissected.
To further evaluate the hydroxybisphosphonate 46a, biodistribution of this compound was obtained in rats. The goal of this experiment was to find whether there was a difference in the properties of the HPLC-purified compound as compared with a nonpurified sample.

[2] = Pharmacokinetics in mice by scintigraphy (gamma camera); assay type: in vivo, balb/c mice
Protocol: Pharmacokinetics in mice. Two animals weighing 20 g and 28 g were anaesthetized and given 250 μl single bolus tail vein injections containing 12 MBq of 46a. The animals were placed under a gamma camera and 2 min frames were collected for the following 2 h. The presented data refers to the animal weighing 20 g.
A gamma camera (ADAC, USA) equipped with a 6 mm pinhole collimator was used. Dynamic data were acquired using a 128×128 matrix size, the field of view was zoomed to the middle 25×25 cm of the camera, and 2 min frames were collected for 2 hours.
The progression from intravenous injection of the hydroxybisphosphonate 46a in mice (balb/c, 20 g) was monitored by means of scintigraphy for 2 h. Images were obtained and dynamic curves for the radioactivity detected in the kidneys and bladder were derived by interactively drawing regions around structures of interest (FIG. 9). […] This is due to the increased sensitivity in the middle of the image, where the accumulation occurs in the kidneys and bladder.

[3] = system: MT-1 cells; assay: Antitumour efficacy, MT-1 skeletal metastases model in nude rats; assay type: in vivo; details: for Mean survival time: 7 days after cell injection
Protocol: Initially, a skeletal metastases model in nude rats, including the human breast carcinoma line MT-1 (1) was tested. A total of 1×10^6 cells were injected into the left vintricula of the heart (L.V.) of 4-5 weeks old nude rats (2). A primary osteogenic sarcoma model in nude rats, was established by intratibial (i.t.) injection of 1×10^6 OHS cells (3-5). A total of 20 animals, allocated in four groups (n=5 for each group) were used for both cell lines. The animals inoculated with MT-1 cells were treated with 200, 300 or 400 MBq/kg of 46a seven days after cell injection. The animals inoculated with OHS cells were treated with 100, 200 or 400 MBq/kg of 46a seven days after cell inoculation. The control groups (MT-1 and OHS) received saline only. Doses were corrected for the actual weight of each animal and administered by single bolus tail vein injections.
The MT-1 model simulates formation of mixed lytic/sclerotic skeletal metastasis in breast cancer patients. The model had recently been established in immuno-deficient rats by injections into the left ventricula (L.V.) of the oestrogen receptor-negative human breast cancer (MT-1) cell line.^83,84,85 In this model, large masses of tumour cells build up in the spine, replacing the normal bone marrow and eroding the bone part of the spine.
Treatment with the hydroxybisphosphonate 46a was initiated 7 days after tumour cell inoculation, while the control group received saline only. […] In comparison, the mean survival times for the animals treated with 46a were 27.5 days (range 23-29, one survivor), 29.0 days (range 27-33) and 30.6 days (range 29-33) with increasing dose of 200, 300 and 400 MBq/kg, respectively (n=5 in each group).

[4] = system: MT-1 cells; assay: Bone lesions to healthy bone ratio in rat inoculated with MT-1 cells (scintigraphy, Bioscope); assay type: in vivo; details: 15 MBq i.v. seven days after MT-1 inoculation, 24 h
Protocol: Tumour lesion to healthy bone ratio. A rat weighing 114 g was given a single bolus tail vein injection of 15 MBq (500 μl) of 46a seven days after inoculation with 1×10^6 MT-1 cells. The animal was sacrificed 24 h postinjection. The whole animal was then placed under a gamma camera and images were obtained. The spine was then excised and cut into slices of 10 μm. The slices were molded in Epon and images were obtained with a beta camera.
A prototype real time autoradiography system (Bioscope 3225, IDEAS, Høvik, Norway) consisting of a double sided multiple strip silicon detector was used to obtain images of bone slices.
In order to obtain ratios of bone cancer lesions to healthy bone, the hydroxybisphosphonate 46a was injected into a rat inoculated with MT-1 cells (a human breast cancer cell line, see section 4.2.3.1.) seven days earlier. The animal was sacrified 24 h postinjection and whole body images were obtained by means of scintigraphy. […] The radioactivity distributions in slices of the spine were then measured with a device (Bioscope) for real time autoradiography. The resulting images were automatically aligned by means of an image correlation method (Personal communication Arne Skretting, The Norwegian Radium Hospital, Oslo). Finally, the aligned images were added in layers to reconstruct the whole spine. […] Abnormal uptake was detected in one slice only. […]

[5] = mouse, in vivo
Protocol: Mice. Samples of 100 μl containing 50,100, 400, 140 or 45 KBq of 31a, 34a, 46a, 67a or 72a, respectively, were injected into the tail veins as single bolus injections. […] At 0.5 h, 2 h, 5 h and 24 h postinjection times the animals were sacrificed; except in the case of the phosphate phosphonate derivative 31 were the animals were sacrificed 0.25 h, 2 h, 5 h and 24 h postinjection. Randomly selected groups of three animals were used at each time point. The whole animals were weighed and dissected. The excised organs, i.e. femur, skull, blood, heart, lung, liver, kidney, spleen, stomach, large intestine and small intestine, were weighed separately prior to counting.
Radioactivity measurements of the labelled compounds were carried out with a liquid scintillation counter (Beckman LS 6500, Beckman Instruments, USA) or with a Capintec CRC-7R radioisotope calibrator (Capintec, USA). The radioactivity level of the excised organs was measured with an automated gamma counter (LKB Wallac 1282, Turku, Finland).
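For Bone-seeking properties in this document: healthy mice given radioiodinated bisphosphonic acids, with randomly chosen groups of three animals per time point.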

Compound: O=P(O)(O)C(O)(Cc1cccc([131I])c1)P(=O)(O)O [46a, 1-hydroxy(m-[^131I and ^125I]-iodophenyl)-ethylidene-1,1-bisphosphonic acid]
- Bone affinity of purified compound versus crude product ([1]; 24 h): 3 fold
- Femur uptake ([1]; HPLC purified, nude/nude rats 60 g, 24 h): 1020 % g dose/g
- Femur to soft tissue ratio ([1]; HPLC-purified sample, 24 h): > 45
- Uptake in femur ([1]; HPLC-purified sample, 24 h): 16.44±1.96 % ID/g
- Uptake in kidneys ([1]; HPLC-purified sample, 24 h): 0.36±0.03 % ID/g
- Uptake in skull ([1]; HPLC-purified sample, 24 h): 5.84±0.35 % ID/g
- Uptake in femur expressed as % gram dose per gram tissue ([1]; Rowett rats, 60 g, 24 h): 986 (Rowett rats, 60 g, 24 h) % gram dose per gram tissue
- Uptake in stomach ([1]; Rowett rats, 60 g, 24 h): 0.05 ± 0.01 % ID/g
- Uptake in the thyroid ([1]; Rowett rats, 60 g, 24 h): 0.02 ± 0.01 % injected dose/organ
- Ratio between uptake in femur and kidney ([1]; Rowett rats, 60 g, 24 h, HPLC purified, listed as 1): 24 h) and 45.7 (femur/kidney,
- Ratio between uptake in femur and kidney ([1]; Rowett rats, 60 g, 24 h, HPLC purified, listed as 3h): above 45
- Femur to kidney ratio ([1]; nonpurified sample): 14
- Femur to skull ratio ([1]; nonpurified sample): ~7
- Uptake in the thyroid ([1]; nonpurified sample): 0.03±0.01 % of the total injected radioactivity
- Uptake in femur ([1]; nonpurified sample, 24 h): 5.28±1.10 % ID/g
- Injected activity accumulated in the bladder ([2]; after 2 hours, mouse 20 g, 12 MBq i.v.): 27%
- Peak uptake in the kidneys (left and right) ([2]; at 45 min postinjection): 7.5 % of the injected dose
- Biological half-life in the kidneys ([2]; from the peak at 45 min): 50 min
- Estimated excretion of the injected dose ([2]; mouse, in vivo): 35%
- Estimated retention of the injected dose ([2]; mouse, in vivo): 65%
- Time of peak uptake in the kidneys ([2]; postinjection): 45 min
- Survival time, range ([3]; 200 MBq/kg): 23 to 29 days
- Mean survival time ([3]; 200 MBq/kg, n=5): 27.5 days
- Long time survivors ([3]; 200 MBq/kg, n=5): one survivor
- Survival time, range ([3]; 300 MBq/kg): 27 to 33 days
- Mean survival time ([3]; 300 MBq/kg, n=5): 29.0 days
- Survival time, range ([3]; 400 MBq/kg): 29 to 33 days
- Mean survival time ([3]; 400 MBq/kg, n=5): 30.6 days
- p of increased survival time (lifetime) compared with controls ([3]; all dose levels (200, 300, 400 MBq/kg), Wilcoxon rank-sum test, long time survivors excluded): < 0.05
- Lifetime after treatment ([3]; breast cancer model): increased lifetime
- Bone cancer lesions to healthy bone ratio [4]: inconclusive
- Bone-seeking properties [5]: potent bone-seekers
